Laboratory results as given in patent publication US20260365670A1, “EGFR INHIBITORS AND USES THEREOF” (DIZAL (JIANGSU) PHARMACEUTICAL CO., LTD., priority 2022, published 2026).
Like-named read-outs stand apart in the source and are kept apart here.

Assays:
EGFR L858R = target: T1, EGFR L858R (Homo sapiens, UniProt P00533, L858R); test: Inhibition of EGFR L858R biochemical enzymatic activity (HTRF); details: 1 mM ATP
T1 construct: purchased Carna Bio
Outline: (§1)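 In a buffer with 5 mM MgCl2, 1 mM MnCl2, 1 mM DTT and 0.01% CHAPS, enzyme turnover of 1 μM biotinylated TK substrate at 1 mM ATP is followed by HTRF after 1 h at room temperature. IC50 is obtained by a four-parameter fit.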

EGFR L858R/T790M = target: T2, EGFR L858R/T790M (Homo sapiens, UniProt P00533, L858R/T790M); test: Inhibition of EGFR L858R/T790M biochemical enzymatic activity (HTRF); details: 1 mM ATP
T2 construct: purchased Carna Bio
Outline: as §1

EGFR Exon19Del = target: T3, EGFR Exon19Del (Homo sapiens, UniProt P00533, DEL746-750); test: Inhibition of EGFR Exon19Del biochemical enzymatic activity (HTRF); details: read-out: IC50 @Del19
T3 construct: purchased Carna Bio
Outline: as §1

EGFR Exon19Del/T790M = target: T4, EGFR Exon19Del/T790M (Homo sapiens, UniProt P00533, DEL746-750/T790M); test: Inhibition of EGFR Exon19Del/T790M biochemical enzymatic activity (HTRF); details: 1 mM ATP
T4 construct: purchased Carna Bio
T4 sequence (P00533 with tags, fused parts or gaps DEL746-750/T790M limits assumed): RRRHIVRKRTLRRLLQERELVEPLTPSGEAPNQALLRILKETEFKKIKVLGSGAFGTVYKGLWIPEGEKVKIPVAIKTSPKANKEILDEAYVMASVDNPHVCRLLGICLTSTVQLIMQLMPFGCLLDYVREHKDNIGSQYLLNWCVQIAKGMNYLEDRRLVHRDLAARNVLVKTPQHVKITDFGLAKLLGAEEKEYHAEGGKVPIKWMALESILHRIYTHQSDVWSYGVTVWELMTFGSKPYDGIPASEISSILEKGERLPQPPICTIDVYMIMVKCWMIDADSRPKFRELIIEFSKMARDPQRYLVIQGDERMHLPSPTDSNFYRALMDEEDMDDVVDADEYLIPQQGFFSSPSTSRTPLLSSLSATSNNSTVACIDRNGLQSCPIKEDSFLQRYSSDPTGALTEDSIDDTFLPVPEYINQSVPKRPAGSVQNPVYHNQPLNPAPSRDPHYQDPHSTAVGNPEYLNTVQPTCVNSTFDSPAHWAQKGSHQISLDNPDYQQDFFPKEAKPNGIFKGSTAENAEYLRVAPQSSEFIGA
Outline: as §1

EGFR[T790M/C797S/L858R] = target: T5, EGFR[T790M/C797S/L858R] (Homo sapiens, UniProt P00533, C797S/L858R/T790M); test: Inhibition of EGFR[T790M/C797S/L858R] biochemical enzymatic activity (HTRF); details: 1 mM ATP
T5 construct: purchased Carna Bio
T5 sequence (P00533 25-1210 T790M/C797S/L858R): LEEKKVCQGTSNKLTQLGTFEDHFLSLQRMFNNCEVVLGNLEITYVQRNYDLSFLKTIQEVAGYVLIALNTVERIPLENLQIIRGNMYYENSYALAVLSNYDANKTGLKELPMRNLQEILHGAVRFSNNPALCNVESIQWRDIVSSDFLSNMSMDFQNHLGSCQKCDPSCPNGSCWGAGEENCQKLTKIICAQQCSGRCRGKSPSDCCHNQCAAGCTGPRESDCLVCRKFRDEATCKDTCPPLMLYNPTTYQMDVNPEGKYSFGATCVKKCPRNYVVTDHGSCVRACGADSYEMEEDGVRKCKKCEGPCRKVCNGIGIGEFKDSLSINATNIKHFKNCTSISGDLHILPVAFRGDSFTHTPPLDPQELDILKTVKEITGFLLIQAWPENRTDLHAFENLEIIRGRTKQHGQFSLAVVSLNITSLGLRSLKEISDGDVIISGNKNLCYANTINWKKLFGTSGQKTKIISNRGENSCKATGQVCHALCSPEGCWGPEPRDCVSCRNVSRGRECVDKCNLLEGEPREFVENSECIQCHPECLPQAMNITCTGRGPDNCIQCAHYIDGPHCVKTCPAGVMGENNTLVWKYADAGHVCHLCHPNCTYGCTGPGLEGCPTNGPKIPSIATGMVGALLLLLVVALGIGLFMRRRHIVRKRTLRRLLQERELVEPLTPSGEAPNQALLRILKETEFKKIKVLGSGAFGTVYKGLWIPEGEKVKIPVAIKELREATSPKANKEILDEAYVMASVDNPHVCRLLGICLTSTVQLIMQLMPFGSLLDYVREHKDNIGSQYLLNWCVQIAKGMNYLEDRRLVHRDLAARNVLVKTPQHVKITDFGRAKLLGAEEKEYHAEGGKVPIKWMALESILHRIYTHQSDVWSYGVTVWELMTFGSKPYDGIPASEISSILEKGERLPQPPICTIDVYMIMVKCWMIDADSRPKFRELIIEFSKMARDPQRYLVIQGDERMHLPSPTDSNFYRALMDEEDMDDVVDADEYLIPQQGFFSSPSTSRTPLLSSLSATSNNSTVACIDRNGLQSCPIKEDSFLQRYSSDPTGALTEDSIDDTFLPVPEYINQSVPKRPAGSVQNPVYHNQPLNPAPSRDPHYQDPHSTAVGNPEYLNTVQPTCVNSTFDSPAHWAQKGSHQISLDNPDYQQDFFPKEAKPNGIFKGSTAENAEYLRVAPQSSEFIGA
Outline: as §1

[1] = target: T6, EGFR[T790M/C797S/d746-750] (Homo sapiens, UniProt P00533, C797S/DEL746-750/T790M); test: Inhibition of EGFR[T790M/C797S/d746-750] biochemical enzymatic activity (HTRF)
T6 construct: purchased Carna Bio
T6 sequence (P00533 with tags, fused parts or gaps DEL746-750/T790M/C797S limits assumed): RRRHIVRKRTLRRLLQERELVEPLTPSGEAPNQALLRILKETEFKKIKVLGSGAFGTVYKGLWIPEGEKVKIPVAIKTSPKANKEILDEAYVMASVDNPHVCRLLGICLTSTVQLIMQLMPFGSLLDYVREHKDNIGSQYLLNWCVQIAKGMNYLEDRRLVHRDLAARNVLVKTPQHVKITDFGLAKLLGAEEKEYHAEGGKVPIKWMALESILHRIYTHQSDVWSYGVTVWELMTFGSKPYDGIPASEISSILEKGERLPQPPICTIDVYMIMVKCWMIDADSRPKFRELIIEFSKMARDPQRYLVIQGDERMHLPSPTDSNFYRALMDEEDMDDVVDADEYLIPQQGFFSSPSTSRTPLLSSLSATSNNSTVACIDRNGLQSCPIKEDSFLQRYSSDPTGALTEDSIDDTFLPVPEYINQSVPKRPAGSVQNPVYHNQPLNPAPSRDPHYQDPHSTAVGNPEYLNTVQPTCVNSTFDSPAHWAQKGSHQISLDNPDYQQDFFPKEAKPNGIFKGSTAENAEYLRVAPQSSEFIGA
Outline: as §1

EGFR (d746-750 C797S) = target: T7, EGFR (d746-750 C797S) (Homo sapiens, UniProt P00533, C797S/DEL746-750); test: Inhibition of EGFR (d746-750 C797S) biochemical enzymatic activity (HTRF); details: 1 mM ATP
T7 construct: purchased signalchem
Outline: as §1

EGFR (C797S L858R) = target: T8, EGFR (C797S L858R) (Homo sapiens, UniProt P00533, C797S/L858R); test: Inhibition of EGFR (C797S L858R) biochemical enzymatic activity (HTRF); details: 1 mM ATP
T8 construct: purchased signalchem
T8 sequence (P00533 25-1210 C797S/L858R): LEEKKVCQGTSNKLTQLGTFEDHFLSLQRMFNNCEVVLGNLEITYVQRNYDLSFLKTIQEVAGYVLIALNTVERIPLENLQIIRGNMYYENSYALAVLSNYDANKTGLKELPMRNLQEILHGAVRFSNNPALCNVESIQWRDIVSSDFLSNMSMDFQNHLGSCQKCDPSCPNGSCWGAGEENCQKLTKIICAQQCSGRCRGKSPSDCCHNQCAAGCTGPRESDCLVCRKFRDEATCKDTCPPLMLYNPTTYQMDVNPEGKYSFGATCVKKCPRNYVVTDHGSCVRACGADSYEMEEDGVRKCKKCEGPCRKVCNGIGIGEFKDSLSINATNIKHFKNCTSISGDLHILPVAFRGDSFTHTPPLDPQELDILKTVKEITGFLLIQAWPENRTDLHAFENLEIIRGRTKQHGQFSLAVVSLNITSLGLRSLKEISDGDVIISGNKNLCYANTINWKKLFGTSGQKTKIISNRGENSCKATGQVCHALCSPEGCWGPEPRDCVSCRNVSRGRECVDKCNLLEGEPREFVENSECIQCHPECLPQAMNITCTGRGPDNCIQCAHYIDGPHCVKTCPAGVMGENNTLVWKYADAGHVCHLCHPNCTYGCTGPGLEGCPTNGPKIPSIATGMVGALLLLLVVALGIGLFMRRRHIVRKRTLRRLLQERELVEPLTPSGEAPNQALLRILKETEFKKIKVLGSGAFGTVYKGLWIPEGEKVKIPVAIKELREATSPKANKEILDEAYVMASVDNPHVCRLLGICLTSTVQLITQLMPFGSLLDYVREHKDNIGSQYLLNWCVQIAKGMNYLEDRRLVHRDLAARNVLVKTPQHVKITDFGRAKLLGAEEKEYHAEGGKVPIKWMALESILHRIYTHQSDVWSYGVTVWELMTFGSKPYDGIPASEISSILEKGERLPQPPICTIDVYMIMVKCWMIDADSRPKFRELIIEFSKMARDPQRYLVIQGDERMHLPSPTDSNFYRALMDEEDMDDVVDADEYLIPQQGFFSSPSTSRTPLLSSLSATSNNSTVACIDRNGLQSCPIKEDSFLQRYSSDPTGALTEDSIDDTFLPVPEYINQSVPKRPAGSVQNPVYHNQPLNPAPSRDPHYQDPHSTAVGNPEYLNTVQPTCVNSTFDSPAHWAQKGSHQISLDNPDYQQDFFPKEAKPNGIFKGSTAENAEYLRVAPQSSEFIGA
Outline: as §1

[2] = test system: Ba/F3 cells expressing EGFR mutations; test: Cell proliferation assay, Ba/F3 cells expressing EGFR mutations (CellTiter-Glo, 72 hours); type: cell-based
Outline: (§2)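 Luminescent viable-cell counts were taken on a day 0 plate at dosing and again at endpoint. Proliferation was calculated as (sample − G0)/(DMSO − G0). Seeding was 5000 Ba/F3 or 500 PC-9 cells per well in RPMI1640, followed by overnight attachment and serial compound dilutions. The GI50 was fitted.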

PC-9 = test: Cell proliferation assay, PC-9 cells (CellTiter-Glo, 72 hours); type: cell-based; details: PC9 cells
Outline: as §2

A-431 [3] = test: Cell proliferation assay, A-431 cells (GI50, Table 6); type: cell-based; details: Homo sapiens, A-431, A-431 cells
Description: [Worded in the source for another cell line; this cell line is reported under the same test.] Ba/F3 cells expressing EGFR mutations were seeded in 384-well plates at 5000 cells/well in RPMI1640 medium containing […]. PC-9 at 500 cells/well was seeded into 384-well plates in RPMI1640 medium with 10% FBS. After overnight incubation, the assay plates were dosed with compounds at a series of concentrations. Alongside dosing the assay plates, the day 0 plate was processed using CellTiter-Glo® Luminescent Cell Viability Assay (Promega) to measure the number of viable cells (G0). The assay plates were further incubated for 72 hours and the number of viable cells (G3) was measured. The percentage of proliferation was calculated as: […]=100×(G3 value of sample well−G0 value)/(G3 value of DMSO control−G0 value). The concentration of compound producing 50% proliferation inhibition (GI50) was further calculated in best-fit curves using XLFit software. N/A=not available.

EGFR wild type = target: T9, EGFR wild type (Homo sapiens, UniProt P00533); test: Inhibition of EGFR wild type biochemical enzymatic activity (HTRF); details: EGFR WT, 1 mM ATP, 1 h, room temperature, read-out: IC50 (nM) @WT
T9 construct: purchased Carna Bio
T9 sequence (P00533 25-1210): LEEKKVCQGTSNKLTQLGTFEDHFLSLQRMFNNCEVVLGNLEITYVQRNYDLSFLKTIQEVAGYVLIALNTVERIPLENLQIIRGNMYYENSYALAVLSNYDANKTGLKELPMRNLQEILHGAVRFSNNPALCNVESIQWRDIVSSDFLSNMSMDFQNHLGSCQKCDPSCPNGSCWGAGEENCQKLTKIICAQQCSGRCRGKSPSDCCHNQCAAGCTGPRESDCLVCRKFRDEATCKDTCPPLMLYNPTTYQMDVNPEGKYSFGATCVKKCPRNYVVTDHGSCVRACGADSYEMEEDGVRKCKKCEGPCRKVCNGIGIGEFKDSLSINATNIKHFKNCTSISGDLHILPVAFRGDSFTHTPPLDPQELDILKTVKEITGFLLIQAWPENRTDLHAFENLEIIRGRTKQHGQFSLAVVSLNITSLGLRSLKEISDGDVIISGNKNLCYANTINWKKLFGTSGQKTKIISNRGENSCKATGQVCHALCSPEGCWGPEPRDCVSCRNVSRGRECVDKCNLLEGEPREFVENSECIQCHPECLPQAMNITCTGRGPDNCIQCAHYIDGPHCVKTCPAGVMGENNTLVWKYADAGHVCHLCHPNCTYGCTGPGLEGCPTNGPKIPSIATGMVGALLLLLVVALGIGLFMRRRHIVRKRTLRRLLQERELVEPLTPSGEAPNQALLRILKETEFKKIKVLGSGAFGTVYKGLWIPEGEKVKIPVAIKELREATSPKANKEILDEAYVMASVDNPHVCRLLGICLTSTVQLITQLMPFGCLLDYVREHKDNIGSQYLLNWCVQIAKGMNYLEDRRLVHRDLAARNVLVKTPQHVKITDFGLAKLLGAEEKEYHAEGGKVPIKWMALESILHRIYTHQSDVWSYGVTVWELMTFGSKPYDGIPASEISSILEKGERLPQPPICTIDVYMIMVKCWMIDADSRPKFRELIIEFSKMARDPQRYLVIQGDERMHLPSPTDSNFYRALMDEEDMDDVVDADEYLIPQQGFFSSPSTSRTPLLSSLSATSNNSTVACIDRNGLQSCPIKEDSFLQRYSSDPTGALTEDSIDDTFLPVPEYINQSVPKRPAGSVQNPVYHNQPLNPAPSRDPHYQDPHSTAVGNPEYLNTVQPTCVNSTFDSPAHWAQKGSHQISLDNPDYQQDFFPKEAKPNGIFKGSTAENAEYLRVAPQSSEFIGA
Outline: as §1

A-431 [4] = test: Cell proliferation GI50, A-431 cells (Table 6); type: cell-based
[5] = 1 h, room temperature, read-out: IC50 (nM) @L858R
[6] = EGFR L858R-T790M, 1 h, room temperature, read-out: IC50 (nM) @L858R-T790M
[7] = EGFR Del19, 1 mM ATP, 1 h, room temperature
[8] = EGFR Del19-T790M, 1 h, room temperature, read-out: IC50 (nM) @Del19-T790M
[9] = EGFR T790M-C797S-L858R, 1 h, room temperature, read-out: IC50 (nM) @T790M- C797S - L858R
[10] = EGFR T790M-C797S-Del19, 1 mM ATP, 1 h, room temperature, read-out: IC50 (nM) @T790M - C797S - Del19
[11] = EGFR Del19-C797S, 1 h, room temperature, read-out: IC50 (nM) @Del19-C797S
[12] = EGFR L858-C797S, 1 h, room temperature, read-out: IC50 (nM) @L858-C797S
[13] = Mus musculus, BaF3, 72 h, BaF3 cells, EGFR DEL19-C797S, CellTiter-Glo, read-out: DEL19-C797S/BaF3 GI50
[14] = Mus musculus, BaF3, 72 h, BaF3 cells, EGFR DEL19-T790-C797S, CellTiter-Glo, read-out: DEL19-T790-C797S/BaF3 GI50
[15] = Mus musculus, BaF3, 72 h, BaF3 cells, EGFR L858R, CellTiter-Glo, read-out: L858R/BaF3 GI50
[16] = Mus musculus, BaF3, 72 h, BaF3 cells, EGFR L858R-C797S, CellTiter-Glo, read-out: L858R-C797S/BaF3 GI50
[17] = Mus musculus, BaF3, 72 h, BaF3 cells, EGFR L858R-T790-C797S, CellTiter-Glo, read-out: L858R-T790-C797S/BaF3 GI50
[18] = Mus musculus, BaF3, 72 h, BaF3 cells, EGFR L858R-T790M, CellTiter-Glo, read-out: L858R-T790M/BaF3 GI50
[19] = Mus musculus, BaF3, 72 h, EGFR DEL19-T790M, CellTiter-Glo, read-out: DEL19-T790M GI50
[20] = Homo sapiens, PC-9, 72 h, CellTiter-Glo, read-out: PC9 GI50
[21] = Homo sapiens, A-431, A-431 cells

Row | Compound | IC50 (EGFR wild type) [nM] | IC50 (EGFR L858R; [5]) [nM] | IC50 (EGFR L858R/T790M; [6]) [nM] | IC50 (EGFR Exon19Del; [7]) [nM] | IC50 (EGFR Exon19Del/T790M; [8]) [nM] | IC50 (EGFR[T790M/C797S/L858R]; [9]) [nM] | IC50 [1, 10] [nM] | IC50 (EGFR (d746-750 C797S); [11]) [nM] | IC50 (EGFR (C797S L858R); [12]) [nM] | GI50 [2, 13] [nM] | GI50 [2, 14] [nM] | GI50 [2, 15] [nM] | GI50 [2, 16] [nM] | GI50 [2, 17] [nM] | GI50 [2, 18] [nM] | GI50 [2, 19] [nM] | GI50 (PC-9; [20]) [nM] | GI50 (A-431 [4]; [21]) [nM] | other results
1 | Cc1cc2cc(n1)-c1cnn(C)c1OCCN1CC3CCC(CC3)(C1)n1c(nc3ccc(N4CCC5(CCN(C)CC5)C4)cc31)NC2=O [Example B31] | – | – | – | – | – | – | – | – | – | – | – | – | – | – | – | – | – | – | IC50 (EGFR L858R; 1 h at room temperature, read-out: IC50 @L858R): 244 nM; IC50 (EGFR L858R/T790M; EGFR L858R/T790M, 1 h at room temperature, read-out: IC50 @L858R-T790M): 20 nM; IC50 (EGFR Exon19Del; EGFR Exon19Del, 1 mM ATP, 1 h at room temperature): 19 nM; IC50 (EGFR Exon19Del/T790M; EGFR Exon19Del/T790M, 1 h at room temperature, read-out: IC50 @Del19-T790M): 11 nM; IC50 (EGFR[T790M/C797S/L858R]; EGFR[T790M/C797S/L858R], 1 h at room temperature, read-out: IC50 @T790M- C797S - L858R): 8.2 nM; IC50 ([1]; EGFR[T790M/C797S/d746-750], 1 mM ATP, 1 h at room temperature, read-out: IC50 @T790M - C797S - Del19): 7.3 nM; IC50 (EGFR (d746-750 C797S); EGFR (d746-750 C797S), 1 h at room temperature, read-out: IC50 @Del19-C797S): 15 nM; IC50 (EGFR (C797S L858R); EGFR (C797S L858R), 1 h at room temperature, read-out: IC50 @L858-C797S): 113 nM; GI50 ([2]; Mus musculus, BaF3, 72 h, BaF3 cells, EGFR DEL19 - C797S, read-out: GI50 DEL19 - C797S/BaF3): 24 nM; GI50 ([2]; Mus musculus, BaF3, 72 h, BaF3 cells, EGFR DEL19 - T790-C797S, read-out: GI50 DEL19 - T790-C797S/BaF3): 10 nM; GI50 ([2]; Mus musculus, BaF3, 72 h, BaF3 cells, EGFR L858R - C797S, read-out: GI50 L858R - C797S/BaF3): 127 nM; GI50 ([2]; Mus musculus, BaF3, 72 h, BaF3 cells, EGFR L858R - T790-C797S, read-out: GI50 L858R - T790-C797S/BaF3): 19 nM; GI50 ([2]; Mus musculus, BaF3, 72 h, BaF3 cells, EGFR L858R - T790M, read-out: GI50 L858R - T790M/BaF3): 38 nM; GI50 ([2]; Mus musculus, BaF3, 72 h, BaF3 cells, EGFR L858R, read-out: GI50 L858R/BaF3): 81 nM; GI50 ([2]; Mus musculus, BaF3, 72 h, EGFR DEL19 - T790M, read-out: GI50 DEL19 - T790M): 10 nM; GI50 (PC-9; Homo sapiens, PC-9, 72 h, read-out: GI50 PC9): 103 nM; GI50 (A-431 [3]): 1680 nM
2 | Cn1ncc2c1OCCN1CC3CCC(C3)(C1)n1c(nc3cc(Br)ccc31)NC(=O)c1cc-2c(=O)n(C)c1 (centres unmarked) [Example A59, 6-Bromo-15,21-dimethyl-23-oxa-2,9,11,15,20,21,26-heptaazaheptacyclo[24.4.1.1^{1,28}.1^{13,17}.0^{2,10}.0^{3,8}.0^{18,22}]tritriaconta-3,5,7,9,13,17(33),18(22),19-octaene-12,16-dione] | > 5000 | > 5000 | 2610 | 202 | 11 | 807 | 11 | 140 | 4720 | 32 | 75 | 201 | 222 | 160 | 964 | 140 | 295 | 1140 | –
3 | C[C@@H]1CCCOc2c(cnn2C)-c2cc(cn(C)c2=O)C(=O)Nc2nc3ccc(N4CCN(C)CC4)c(Cl)c3n2C1 [Example A101, (11R)-15-Chloro-5,11,26-trimethyl-16-(4-methylpiperazin-1-yl)-7-oxa-4,5,13,20,22,26-hexaazapentacyclo[22.3.1.0^{2,6}.0^{13,21}.0^{14,19}]octacosa-1(28),2(6),3,14,16,18,20,24-octaene-23,27-dione] | > 5000 | 212 | 7.4 | 3.5 | 2.3 | 3.2 | 1.8 | 2.3 | 47 | 8.1 | 58 | 68 | 31 | 57 | 260 | 92 | 128 | 1410 | –
4 | CN1CCC2(CC1)CCN(c1ccc3nc4n(c3c1)C13CCC(CN(CCOc5c(cnn5C)-c5cc(cn(C)c5=O)C(=O)N4)C1)C3)C2 (single isomer, unassigned) [Example A88A] | > 5000 | > 5000 | > 5000 | 477 | > 5000 | > 5000 | > 5000 | 1160 | > 5000 | – | – | – | – | – | – | – | – | – | GI50 ([2]; BaF3 cells, EGFR DEL19-C797S, CellTiter-Glo, read-out: DEL19-C797S/BaF3 GI50): 57 nM; GI50 ([2]; BaF3 cells, EGFR DEL19-T790-C797S, CellTiter-Glo, read-out: DEL19-T790-C797S/BaF3 GI50): 159 nM; GI50 ([2]; BaF3 cells, EGFR L858R, CellTiter-Glo, read-out: L858R/BaF3 GI50): 119 nM; GI50 ([2]; BaF3 cells, EGFR L858R-C797S, CellTiter-Glo, read-out: L858R-C797S/BaF3 GI50): 100 nM; GI50 ([2]; BaF3 cells, EGFR L858R-T790-C797S, CellTiter-Glo, read-out: L858R-T790-C797S/BaF3 GI50): 252 nM; GI50 ([2]; BaF3 cells, EGFR L858R-T790M, CellTiter-Glo, read-out: L858R-T790M/BaF3 GI50): 361 nM; GI50 ([2]; EGFR DEL19-T790M, CellTiter-Glo, read-out: DEL19-T790M GI50): 163 nM; GI50 (PC-9; CellTiter-Glo, read-out: PC9 GI50): 611 nM; GI50 (A-431 [4]; A-431 cells): 6260 nM
